# Patent publication US20100041089A1, “IMPROVED METHOD FOR DETECTING CHEMICAL […]” (priority 2006, published 2010)
# System: yeast genes (expressed mRNA)
# Assay: DNA chip measurement of expressed mRNA of yeast genes after culture with a toxic chemical substance
# Type: cell-based, Saccharomyces cerevisiae S288C
# Settings: for level of expressed mRNA in the presence of chemical substance / level in the absence of chemical substance: cultured two hours with the chemical substance; for The level of expressed mRNA in the presence of chemical substance/The level of expressed mRNA in the absence of chemical substance: cultured two hours with substance
# Method: Yeast (Saccharomyces cerevisiae S288C (a SUC2mal mel gap2 CUP1)) were cultured at 25° C. on YPD medium (yeast extract 1%, polypeptone 2%, glucose 2%). One of toxic chemical substances was added to the cell at logarithmic growth phase, and the cell was further cultured for two hours. Cell was cultured without any chemical substance in the same condition, and was used as a control. Concentrations of the chemical substances were defined to inhibit the growth of the yeast but not lead to death.
# After the completion of cultivation, the culture was centrifuged to collect the cells. To the cells, sodium acetate buffer (50 mM sodium acetate, 10 mM EDTA, 1% SDS) was added, and the mixture was shaken at 65° C. for five minutes, followed by returning to room temperature, and obtaining the supernatant, which procedure was repeated two times. To the supernatant, ½ amount of a solution of phenol/chloroform (1:1) was added, and the mixture was centrifuged to give a supernatant, an equal amount of chloroform was added, and the mixture was centrifuged to give a supernatant. To the supernatant, an equal amount of isopropanol containing 0.3 M sodium acetate was added, and the mixture was allowed to stand at room temperature for 30 minutes, after which the mixture was centrifuged to give sediment of the whole RNAs. Seventy % ethanol was added to the sediment, and the mixture was again centrifuged to give sediment, which was then dried and dissolved in water. mRNA was isolated from the whole RNAs as followings. In view of the fact that a poly A chain is attached to the 3′ terminus of mRNA, a polynucleotide having a poly T structure which was immobilized on the surface of latex beads was used to trap the mRNA, and then the mRNA was washed and eluted with spine column (Oligotex-dT30<Super>mRNA Purification Kit, Takara). Reverse transcription of the mRNA was conducted with a reverse transcriptase (Super Script II Reverse Transcriptase; catalogue No. 18064-014, GibcoBRL) using fluorescence-labeled nucleotides to give cDNAs that were introduced with Cy3-dUTP or Cy5-dUTP during the reverse transcription.
# The labeled cDNAs were dissolved in TE buffer (10 mM Tris-HCl/1 mM EDTA, pH 8.0), and the solution was dropped on the DNA chip containing the whole genes of yeast (DNA Chip Research Inc. Japan) so that the cDNAs were hybridized on the DNA chip at 65° C. for over 12 hours. The fluoresces intensity of the DNA chip was read with a scanner, and the ratio relative to the fluorescence intensity resulting from the absence of chemical substance was estimated as the following, which is shown in Tables 1 to 9.
# In the Tables, “Intensity” indicated in the rightmost column is a value of the level of expressed mRNA of each gene in control cells as divided by the average level of the expressions of the whole genes. A gene of which mRNA level is lower in control, and is higher in cases of addition of chemical substance, is especially useful in the detection of toxic substances.
# Here, when a ratio of an amount of mRNA expressed in the presence of the chemical substance to an amount of mRNA expressed in the absence of the chemical substance is two or more, then it is considered significant.
compound,measurement,setting,value
"Cl[C@H]1[C@H](Cl)[C@@H](Cl)[C@@H](Cl)[C@H](Cl)[C@H]1Cl [(7), γ-Hexachlorocyclohexane]",level of expressed mRNA in the presence of chemical substance / level in the absence of chemical substance,yeast gene YNL058C,0.7
same,level of expressed mRNA in the presence of chemical substance / level in the absence of chemical substance,yeast gene YNL063W,1.4
same,The level of expressed mRNA in the presence of chemical substance/The level of expressed mRNA in the absence of chemical substance,yeast gene YNL074C,1.1
same,The level of expressed mRNA in the presence of chemical substance/The level of expressed mRNA in the absence of chemical substance,yeast gene YNL092W,1.6
same,The level of expressed mRNA in the presence of chemical substance/The level of expressed mRNA in the absence of chemical substance,yeast gene YNL115C,2.4
same,The level of expressed mRNA in the presence of chemical substance/The level of expressed mRNA in the absence of chemical substance,yeast gene YNL156C,1.9
same,level of expressed mRNA in the presence of chemical substance / level in the absence of chemical substance,yeast gene YNL176C,0.7
same,level of expressed mRNA in the presence of chemical substance / level in the absence of chemical substance,yeast gene YNL194C,1.5
same,level of expressed mRNA in the presence of chemical substance / level in the absence of chemical substance,yeast gene YNL200C,1.2
same,The level of expressed mRNA in the presence of chemical substance/The level of expressed mRNA in the absence of chemical substance,yeast gene YNL234W,1.2
same,level of expressed mRNA in the presence of chemical substance / level in the absence of chemical substance,yeast gene YNL253W,1.3
same,level of expressed mRNA in the presence of chemical substance / level in the absence of chemical substance,yeast gene YNL276C,0.9
same,The level of expressed mRNA in the presence of chemical substance/The level of expressed mRNA in the absence of chemical substance,yeast gene YNL281W,1.2
same,The level of expressed mRNA in the presence of chemical substance/The level of expressed mRNA in the absence of chemical substance,yeast gene YNL305C,1.7
same,level of expressed mRNA in the presence of chemical substance / level in the absence of chemical substance,yeast gene YNR051C,1.3
same,The level of expressed mRNA in the presence of chemical substance/The level of expressed mRNA in the absence of chemical substance,yeast gene YNR068C,1.8
same,level of expressed mRNA in the presence of chemical substance / level in the absence of chemical substance,yeast gene YOL026C,1.8
same,The level of expressed mRNA in the presence of chemical substance/The level of expressed mRNA in the absence of chemical substance,yeast gene YOL032W,1.4
same,The level of expressed mRNA in the presence of chemical substance/The level of expressed mRNA in the absence of chemical substance,yeast gene YOL036W,1.0
same,The level of expressed mRNA in the presence of chemical substance/The level of expressed mRNA in the absence of chemical substance,yeast gene YOL047C,1.3
same,The level of expressed mRNA in the presence of chemical substance/The level of expressed mRNA in the absence of chemical substance,yeast gene YOL071W,2.0
same,The level of expressed mRNA in the presence of chemical substance/The level of expressed mRNA in the absence of chemical substance,yeast gene YOL082W,2.5
same,The level of expressed mRNA in the presence of chemical substance/The level of expressed mRNA in the absence of chemical substance,yeast gene YOL083W,3.1
same,The level of expressed mRNA in the presence of chemical substance/The level of expressed mRNA in the absence of chemical substance,yeast gene YOL117W,1.6
same,The level of expressed mRNA in the presence of chemical substance/The level of expressed mRNA in the absence of chemical substance,yeast gene YOL131W,1.3
same,The level of expressed mRNA in the presence of chemical substance/The level of expressed mRNA in the absence of chemical substance,yeast gene YOL150C,2.4
same,The level of expressed mRNA in the presence of chemical substance/The level of expressed mRNA in the absence of chemical substance,yeast gene YOL162W,2.0
same,The level of expressed mRNA in the presence of chemical substance/The level of expressed mRNA in the absence of chemical substance,yeast gene YOR019W,2.8
same,level of expressed mRNA in the presence of chemical substance / level in the absence of chemical substance,yeast gene YOR022C,1.6
same,level of expressed mRNA in the presence of chemical substance / level in the absence of chemical substance,yeast gene YOR087W,0.9
same,level of expressed mRNA in the presence of chemical substance / level in the absence of chemical substance,yeast gene YOR138C,1.1
same,The level of expressed mRNA in the presence of chemical substance/The level of expressed mRNA in the absence of chemical substance,yeast gene YOR197W,0.9
same,level of expressed mRNA in the presence of chemical substance / level in the absence of chemical substance,yeast gene YOR253W,1.3
same,level of expressed mRNA in the presence of chemical substance / level in the absence of chemical substance,yeast gene YOR267C,0.9
same,level of expressed mRNA in the presence of chemical substance / level in the absence of chemical substance,yeast gene YOR325W,1.2
same,level of expressed mRNA in the presence of chemical substance / level in the absence of chemical substance,yeast gene YPL005W,2.0
same,The level of expressed mRNA in the presence of chemical substance/The level of expressed mRNA in the absence of chemical substance,yeast gene YPL087W,4.2
same,level of expressed mRNA in the presence of chemical substance / level in the absence of chemical substance,yeast gene YPL150W,1.2
same,level of expressed mRNA in the presence of chemical substance / level in the absence of chemical substance,yeast gene YPL152W,1.3
same,level of expressed mRNA in the presence of chemical substance / level in the absence of chemical substance,yeast gene YPL168W,1.2
same,level of expressed mRNA in the presence of chemical substance / level in the absence of chemical substance,yeast gene YPL180W,1.0
same,level of expressed mRNA in the presence of chemical substance / level in the absence of chemical substance,yeast gene YPL188W,1.3
same,The level of expressed mRNA in the presence of chemical substance/The level of expressed mRNA in the absence of chemical substance,yeast gene YPL196W,2.4
same,The level of expressed mRNA in the presence of chemical substance/The level of expressed mRNA in the absence of chemical substance,yeast gene YPL206C,1.2
same,level of expressed mRNA in the presence of chemical substance / level in the absence of chemical substance,yeast gene YPL221W,1.3
same,The level of expressed mRNA in the presence of chemical substance/The level of expressed mRNA in the absence of chemical substance,yeast gene YPL222W,1.1
same,level of expressed mRNA in the presence of chemical substance / level in the absence of chemical substance,yeast gene YPL225W,1.7
same,The level of expressed mRNA in the presence of chemical substance/The level of expressed mRNA in the absence of chemical substance,yeast gene YPR023C,1.2
same,level of expressed mRNA in the presence of chemical substance / level in the absence of chemical substance,yeast gene YPR049C,1.1
same,level of expressed mRNA in the presence of chemical substance / level in the absence of chemical substance,yeast gene YPR146C,1.0
same,level of expressed mRNA in the presence of chemical substance / level in the absence of chemical substance,yeast gene YPR148C,1.6
same,The level of expressed mRNA in the presence of chemical substance/The level of expressed mRNA in the absence of chemical substance,yeast gene YPR151C,4.4
same,level of expressed mRNA in the presence of chemical substance / level in the absence of chemical substance,yeast gene YPR172W,1.2
